Test results: patent US5900406A, “Use of antibiotics of the type 2-deoxystreptamine substituted with aminosugars to inhibit growth of microorganisms containing group I introns” (NZYM, Inc., priority 1991, dated 1999)

Experiments:
[1] = tested on: td intron (group I intron of the thymidylate synthase gene of phage T4, truncated version); conditions: td intron self-splicing; read-out: Michaelis constant (Km) for GTP; cited from earlier work
[2] = tested on: group II bI1 intron (first intron of the yeast mitochondrial apocytochrome b gene); experiment: In vitro splicing of a group II intron in the presence of aminoglycosides; type: biochemical; conditions: concentrations ≤5 mM
Description: FIG. 2c, Precursor -A of the group II bli intron (first intron of the yeast mitochondrial apocytochrome b gene) was incubated in a splicing buffer (40 mM Tris-HCl, pH 7.5, 60 mM MgCl2, 625 mM (NH4)2 SO4, 2 mM spermidine) at 42° C. for 60 min with increasing amounts of gentamicin as indicated. Splicing products were separated as in FIG. 2 A. C is an unincubated control.
(§1) Materials and Methods: In vitro splicing experiments were performed with a truncated version of the td gene, containing 79 nt of exon I, 265 nt of intron sequences containing only the catalytic core (delta P6-2) and 21 nt of exon H (Schroeder, von Ahsen, & Belfort, 199 1, Biochemistry 30, 3295). The plasmids containing the Tetrahymena rRNA intron and the yeast mitochondrial cob intron I (the group II intron) were pBGST7 (Been & Cech, 1986, Cell 47, 207) and pBSbIl (Schmelzer and Schweyen, 1986, Cell 46, 557), respectively. The sunY intron is described in Michel et al. (1990, Genes & Development 4, 777). DNA was prepared by the alkaline-lysis procedure and linearized with appropriate restriction enzymes. Transcription was performed in a total volume of 20 μl at 30° C. for one (1) hour in buffer containing 40 mM Tris-HCl pH 7.5, 3 mM MgCl2, 0.4 mM spermidine, 1 mM of each NTP, 5 mM DTIC, 10 units T7 RNA polymerase (Boehringer Mannheim), 10 μCi alpha-^35 S-CTP and 10 units RNAse inhibitor (Boehringer Mannheim). […]

[3] = tested on: td intron (group I intron of the thymidylate synthase gene of phage T4, truncated version); type: biochemical
Description: In vitro-transcribed and gel-purified^8 preRNA from a truncated version of the td intron^21 was incubated in a splicing buffer (50 mM Tris-HCl, pH 7.5, 5 mM MgCl2, 0.4 mM spermidine) for 10 min at 37° C. with GTP and gentamicin as indicated. Samples were separated on 5% acrylamide/7 M urea gels. RNA species are as follows: In-E2, intron-exon 2; L-ln, linear intron; E1-E2, ligated exons; E1, exon 1.
FIGS. 3a-c, Splicing experiments were done with the td intron as described in FIG. 2a, using several members of each family of aminoglycoside antibiotics (gentamicin, kanamycin and neomycin). Structures of the antibiotics can be found in Davies and Yagisaura in Biochemistry and Genetic Function Of Commercially Important Antibiotics, p. 329-354, Addison-Wesley, London, (1983) "Conc" is the antibiotic concentration at which about 50% inhibition was observed.
To monitor the splice process in vitro precursor RNA containing exon1, intron and exon2 was synthesized by in vitro transcription using bacteriophage RNA polymerase. During transcription, a radioactive labeled nucleotide was present in the nucleotide mixture and was incorporated in the RNA. This radioactive labeled RNA was then subjected to splicing conditions and after reaction the RNA splice products were separated from each other by electrophoresis on a denaturing acrylamide gel. The gel was dried and exposed for autoradiography.
Unspliced precursor RNA from the thymidylate synthase gene of the phage T4, which had been transcribed in vitro, and purified as previously described, (Schroeder, R., von Ahsen, U. & Belfort, M. Biochemistry 30, 3295-3303 (1991)) was incubated with increasing amounts of gentamicin under normal splicing conditions.
(§2) Materials and Methods: In vitro splicing experiments were performed with a truncated version of the td gene, containing 79 nt of exon I, 265 nt of intron sequences containing only the catalytic core (delta P6-2) and 21 nt of exon H (Schroeder, von Ahsen, & Belfort, 199 1, Biochemistry 30, 3295). The plasmids containing the Tetrahymena rRNA intron and the yeast mitochondrial cob intron I (the group II intron) were pBGST7 (Been & Cech, 1986, Cell 47, 207) and pBSbIl (Schmelzer and Schweyen, 1986, Cell 46, 557), respectively. The sunY intron is described in Michel et al. (1990, Genes & Development 4, 777). DNA was prepared by the alkaline-lysis procedure and linearized with appropriate restriction enzymes. Transcription was performed in a total volume of 20 μl at 30° C. for one (1) hour in buffer containing 40 mM Tris-HCl pH 7.5, 3 mM MgCl2, 0.4 mM spermidine, 1 mM of each NTP, 5 mM […], 10 units T7 RNA polymerase (Boehringer Mannheim), 10 μCi alpha-^35 S-CTP and 10 units RNAse inhibitor (Boehringer Mannheim). The reaction mixture was loaded on a 5% polyacrylamide/7 M urea gel. Precursor RNA was cut out of the gel and soaked in 400 μl elution buffer (10 mM Tris-HCl pH 7.5, 10 mM EDTA, 3.5 M NH4 OAc, 0.1% SDS) for two hours. After ethanol precipitation, the RNA was dissolved in H2 O-- before splicing experiments were performed the RNA was incubated in splicing buffer (40 mM Tris-HCl pH 7.5, 8 mM MgCl2, 0.4 mM spermidine) for 2 min at 56° C. For splicing of the suny intron and the Tetrahymena intron 50 mM NH4 Cl or 200 mM NaCl were added, respectively. Splicing was initiated by addition of guanosine at the appropriate concentration at 37° C. When splicing was to be inhibited by antibiotic, the antibiotic was added immediately before the guanosine. Splicing reactions were performed at 37° C. for 10'.

[4] = tested on: group I intron from the ribosomal RNA from Tetrahymena thermophila; experiment: In vitro splicing inhibition of the Tetrahymena rRNA group I intron; type: biochemical; conditions: read-out: concentration giving 50% inhibition of splicing
Description: To see whether this inhibition could be extended to all group I introns, the group I intron from the ribosomal RNA from Tetrahymena thermophila was tested for sensitivity towards gentamicin and again the splice reaction was inhibited. To test the specificity of this interaction of gentamicin with this type of catalytic RNA […]
as §1, with “enzymes.” for “enzymes. Transcription was performed in a total volume of 20 μl at 30° C. for one (1) hour in buffer containing 40 mM Tris-HCl pH 7.5, 3 mM MgCl2, 0.4 mM spermidine, 1 mM of each NTP, 5 mM DTIC, 10 units T7 RNA polymerase (Boehringer Mannheim), 10 μCi alpha-^35 S-CTP and 10 units RNAse inhibitor (Boehringer Mannheim).”

[5] = tested on: sunY intron (shortened version, construct SYC1.3); experiment: In vitro splicing inhibition of the sunY group I intron (GTP incorporation assay); type: biochemical, T4-phage
Description: as §2, with “DNA” for “Materials and Methods: In vitro splicing experiments were performed with a truncated version of the td gene, containing 79 nt of exon I, 265 nt of intron sequences containing only the catalytic core (delta P6-2) and 21 nt of exon H (Schroeder, von Ahsen, & Belfort, 199 1, Biochemistry 30, 3295). The plasmids containing the Tetrahymena rRNA intron and the yeast mitochondrial cob intron I (the group II intron) were pBGST7 (Been & Cech, 1986, Cell 47, 207) and pBSbIl (Schmelzer and Schweyen, 1986, Cell 46, 557), respectively. The sunY intron is described in Michel et al. (1990, Genes & Development 4, 777). DNA”, “10'. […] Samples were separated on 5% acrylamide/7 M urea gels.” for “10'.”

| Molecule | Km [1] | inhibition of splicing of the group II intron [2] | lowest concentration with splicing inhibition activity ([3]; activity at a concentration as low as) | antibiotic concentration affecting the first step of splicing ([3]; first step affected only at this concentration) | IC50 ([3]; in vitro splicing, 37° C., 10 min, read-out: concentration giving approximately 50% inhibition of the second splice step of the td intron) | IC50 [4] | concentration to which the sunY intron is sensitive [5] | concentration at which the second step (cleavage at the 3' splice-site and exon ligation) is completely inhibited ([3]; GTP 2.5 μM or 100 μM) | effect on the first step of splicing ([3]; concentrations ≤2 mM, whatever the guanosine concentration) |
| --- | --- | --- | --- | --- | --- | --- | --- | --- | --- |
| Nc1nc2c(ncn2[C@@H]2O[C@H](COP(=O)(O)OP(=O)(O)OP(=O)(O)O)[C@@H](O)[C@H]2O)c(=O)[nH]1 [GTP] | 1 µM | – | – | – | – | – | – | – | – |
| NC[C@H]1O[C@H](O[C@H]2[C@H](O)[C@@H](O[C@H]3O[C@H](CO)[C@@H](O)[C@H](N)[C@H]3O)[C@H](N)C[C@@H]2N)[C@H](N)C[C@@H]1O [Tobramycin] | – | not inhibited | 0.5 µM | 100 µM | ~0.5 µM | – | – | – | – |
| gentamicin | – | not inhibited | – | – | – | ~100 µM | 100 µM | 2.5 µM | little effect |
